Assay results: patent EP4796171A2 (Zealand Pharma A/S, priority 2017, dated 2018)

Target: T1, human GLP-2 receptors (Homo sapiens, UniProt O95838, D470N)
T1 sequence (O95838 1-553 D470N): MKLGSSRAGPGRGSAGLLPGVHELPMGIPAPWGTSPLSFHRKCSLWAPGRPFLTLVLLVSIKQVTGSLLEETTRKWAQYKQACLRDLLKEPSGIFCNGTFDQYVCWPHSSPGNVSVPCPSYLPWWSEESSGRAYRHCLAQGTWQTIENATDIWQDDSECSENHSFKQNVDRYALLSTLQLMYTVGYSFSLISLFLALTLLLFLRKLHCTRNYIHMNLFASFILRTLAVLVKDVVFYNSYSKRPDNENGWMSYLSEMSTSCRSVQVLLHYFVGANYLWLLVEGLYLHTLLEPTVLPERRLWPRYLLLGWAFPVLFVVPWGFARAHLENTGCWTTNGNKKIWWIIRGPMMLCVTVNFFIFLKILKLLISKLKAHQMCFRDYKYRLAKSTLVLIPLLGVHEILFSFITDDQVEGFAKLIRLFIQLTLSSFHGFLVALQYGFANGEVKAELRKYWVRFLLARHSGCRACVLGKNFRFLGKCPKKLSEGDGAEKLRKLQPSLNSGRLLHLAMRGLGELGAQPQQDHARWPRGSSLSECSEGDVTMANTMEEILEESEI
Assay: GLP-2 receptor efficacy assay (cAMP AlphaScreen)
Format: cell-based
Source text: The hGLP2-R was purchased from MRC-geneservice, Babraham, Cambridge as an Image clone: 5363415 (11924-117). For subcloning into a mammalian expression vector, primers for subcloning were obtained from DNA-Technology, Risskov, Denmark. The 5' and 3' primers used for the PCR reaction include terminal restriction sites for cloning and the context of the 5' primer is modified to a Kozak consensus without changing the sequence of the product encoded by the ORF. A standard PCR reaction was run using Image clone 5363415 (11924-117) as a template with the above mentioned primers and Polymerase Herculase II Fusion in a total vol. of 50µl. The generated PCR product was purified using GFX PCR and Gel band purification kit, digested with restriction enzymes and cloned into the mammalian expression vector using Rapid DNA Ligation Kit. Ligation reaction was transformed to XL10 Gold Ultracompetent cells and colonies were picked for DNA production using Endofree Plasmid maxi kit. Subsequent sequence analysis was conducted by MWG Eurofins, Germany.
HEK293 cells were transfected using the Lipofectamine PLUS transfection method. The day before transfection, HEK293 cells were seeded in two T75 flasks at a density of 2 x 10^6 cells / T75 flask in cell culturing medium without antibiotics. On the day of transfection, cells were washed with 1x DPBS and medium was replaced with Optimem to a volume of 5 mL / T75 flask before addition of Lipofectamine-plasmid complexes were added gently and drop wise to the cells in T75 flasks and replaced with growth medium after 3 hours and again to growth medium supplemented with 500µg/mL G418 after 24 hours. After 4 weeks in G418 selection, clones were picked and tested in a functional assay.
The cAMP AlphaScreen® assay from Perkin Elmer was used to quantitate the cAMP response to activation of the GLP2 receptor. […] Table 2: GLP-2R EC50 measurements

In the case of “H-HGEGTFSSELATILDALAARDFIAWLIATKITDK-OH [ZP2469]”, the EC50 is reported as 0.052 nM and the in vitro potency (in words, relative to ZP1848) is reported as “comparable to ZP1848”.
